Measured values published in publication PMC9671096 (Molecular pharmaceutics, 2021).
Where a SMILES comes first, the peptide text is derived from it. The star is where a group is joined. Cbz = O=C(OCc1ccccc1)*

Key:
ERs = assay type: binding, human; conditions: IC50 of 17β-E2 divided by IC50 of test compound; MCF-7 cytosol
HiBiT-GPER = HiBiT-GPER (Homo sapiens, UniProt Q99527); assay type: cell-based; conditions: for effect on UI-EP001/UI-EP002-mediated degradation of HiBiT-GPER: with 100 μM UI-EP001 or UI-EP002, 1 hour, MG132 10 μM, chloroquine 100 μM, E2 or aldosterone 100 nM-100 μM
Chain of HiBiT-GPER (Q99527 whole entry): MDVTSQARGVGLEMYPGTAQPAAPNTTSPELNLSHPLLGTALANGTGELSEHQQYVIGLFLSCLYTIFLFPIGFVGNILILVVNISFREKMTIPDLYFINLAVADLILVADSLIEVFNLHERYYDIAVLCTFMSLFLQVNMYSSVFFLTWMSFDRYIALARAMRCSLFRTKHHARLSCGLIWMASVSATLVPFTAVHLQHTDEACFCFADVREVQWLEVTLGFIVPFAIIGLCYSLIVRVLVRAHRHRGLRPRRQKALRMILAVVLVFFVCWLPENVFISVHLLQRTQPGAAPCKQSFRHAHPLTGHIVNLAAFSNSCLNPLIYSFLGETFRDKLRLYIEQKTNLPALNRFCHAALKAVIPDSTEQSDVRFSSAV

HiBiT-ERα = molecular target: T1, HiBiT-ERα (Homo sapiens, UniProt P03372); assay type: cell-based; conditions: for effect on UI-EP001/UI-EP002-mediated degradation of HiBiT-ERα: with 100 μM UI-EP001 or UI-EP002, 1 hour, MG132 10 μM, chloroquine 100 μM, E2 or aldosterone 100 nM-100 μM
T1 sequence (P03372 1-595): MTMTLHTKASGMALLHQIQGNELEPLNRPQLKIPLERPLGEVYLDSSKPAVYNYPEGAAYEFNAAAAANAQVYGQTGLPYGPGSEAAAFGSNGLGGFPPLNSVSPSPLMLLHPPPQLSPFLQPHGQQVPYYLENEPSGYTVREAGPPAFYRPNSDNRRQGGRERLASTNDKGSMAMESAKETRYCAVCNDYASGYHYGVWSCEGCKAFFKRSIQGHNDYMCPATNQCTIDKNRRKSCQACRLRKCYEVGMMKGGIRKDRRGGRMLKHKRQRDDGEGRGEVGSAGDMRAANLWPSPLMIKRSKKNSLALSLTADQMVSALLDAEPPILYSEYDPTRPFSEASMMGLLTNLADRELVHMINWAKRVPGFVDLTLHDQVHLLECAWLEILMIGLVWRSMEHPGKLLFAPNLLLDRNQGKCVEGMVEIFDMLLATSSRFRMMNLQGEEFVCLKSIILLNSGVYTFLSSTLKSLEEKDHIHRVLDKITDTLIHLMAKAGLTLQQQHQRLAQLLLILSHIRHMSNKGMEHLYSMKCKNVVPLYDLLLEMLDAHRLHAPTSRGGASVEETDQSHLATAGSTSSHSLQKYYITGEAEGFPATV

SKBR3 = assay: Cell cycle analysis; assay type: cell-based, human; conditions: SKBR3, 10 μM, 24 hours
HCC-1806 = assay: Cell cycle analysis; assay type: cell-based, human; conditions: HCC-1806, 10 μM, 24 hours
MDA-MB-231 = assay: Cell cycle analysis; assay type: cell-based, human; conditions: MDA-MB-231, 10 μM, 24 hours
GPER [1] = molecular target: T2, GPER (Homo sapiens, UniProt Q99527); assay: Immunostaining of endogenous GPER in MCF-7 cells; assay type: cell-based; conditions: 1 hour
T2 sequence (Q99527 whole entry): as the sequence (Q99527 whole entry) above

MCF-7 = assay: Cell cycle analysis; assay type: cell-based, human; conditions: MCF-7, 10 μM, 24 hours
ERβ = ERβ (Homo sapiens, UniProt Q92731); assay: Immunostaining of endogenous ERβ in MCF-7 cells; assay type: cell-based; conditions: 1 hour
Chain of ERβ (Q92731 whole entry): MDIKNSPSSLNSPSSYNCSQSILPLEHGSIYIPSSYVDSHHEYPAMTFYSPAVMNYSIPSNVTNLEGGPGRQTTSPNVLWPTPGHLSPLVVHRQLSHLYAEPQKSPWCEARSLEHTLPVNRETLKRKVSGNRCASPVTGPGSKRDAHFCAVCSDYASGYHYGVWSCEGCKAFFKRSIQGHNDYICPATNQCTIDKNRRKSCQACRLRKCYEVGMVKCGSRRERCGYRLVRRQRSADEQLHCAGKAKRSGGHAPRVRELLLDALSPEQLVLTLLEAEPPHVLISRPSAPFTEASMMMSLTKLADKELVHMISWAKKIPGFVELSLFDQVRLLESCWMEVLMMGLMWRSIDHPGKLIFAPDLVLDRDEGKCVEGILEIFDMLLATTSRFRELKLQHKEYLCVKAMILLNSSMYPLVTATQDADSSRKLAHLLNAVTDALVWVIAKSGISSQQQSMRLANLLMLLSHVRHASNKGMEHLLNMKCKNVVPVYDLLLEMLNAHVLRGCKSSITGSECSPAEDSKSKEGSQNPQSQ

ERα = molecular target: T3, ERα (Homo sapiens, UniProt P03372); assay: Immunostaining of endogenous ERα in MCF-7 cells; assay type: cell-based; conditions: 1 hour
T3 sequence (P03372 1-595): T1 sequence (P03372 1-595)

GPER [2] = molecular target: T2, GPER; assay: Intact cell competitive binding assay with E2-FITC tracer; conditions: intact SKBR3 cells, concentrations as high as 10 μM

## C[C@]12CC[C@@H]3c4ccc(O)cc4CC[C@H]3[C@@H]1CC[C@@H]2O [Estradiol, 17β-estradiol]
ERs
  ERs RBA%: 100.0%

## CC(C)C[C@@H](C=O)NC(=O)[C@H](CC(C)C)NC(=O)[C@H](CC(C)C)NC(=O)OCc1ccccc1 [MG132] (Cbz-Leu-Leu-Leu-aldehyde)
HiBiT-GPER
  effect on UI-EP001/UI-EP002-mediated degradation of HiBiT-GPER: reversed
HiBiT-ERα
  effect on UI-EP001/UI-EP002-mediated degradation of HiBiT-ERα: reversed

## Cc1ncsc1-c1ccc(CNC(=O)C2CC(O)CN2C(=O)C(NC(=O)COCCOCCOCCOCC(=O)O)C(C)(C)C)cc1 (centres unmarked) [Partial PROTAC]
SKBR3
  cell cycle distribution shift (G2/M arrest): much less significant shift
HCC-1806
  cell cycle distribution shift (G2/M arrest): much less significant shift
MDA-MB-231
  cell cycle distribution shift (G2/M arrest): much less significant shift
GPER [1]
  reduction of intracellular GPER: did not impact
HiBiT-GPER; 100 μM, 1 hour
  decrease of HiBiT-GPER: did not show any significant decrease
HiBiT-GPER; 100 μM, 8 hrs, text does not say which receptor (HiBiT-GPER or HiBiT-ER)
  receptor present following treatment: 83%
MCF-7
  cell cycle distribution shift (G2/M arrest): much less significant shift
ERβ
  reduction of nuclear ERβ: did not impact
HiBiT-ERα; 100 μM, 1 hour
  decrease of HiBiT-ERα: did not show any significant decrease
ERα
  reduction of nuclear ERα: did not impact
GPER [2]
  competition for E2-FITC binding to GPER: unable to compete

## C[C@]12CCC(=O)C=C1CC[C@@H]1[C@@H]2[C@@H](O)C[C@]2(C=O)[C@@H](C(=O)CO)CC[C@@H]12 [aldosterone]
HiBiT-GPER
  effect on UI-EP001/UI-EP002-mediated degradation of HiBiT-GPER: not aldosterone was capable of blocking
HiBiT-ERα
  effect on UI-EP001/UI-EP002-mediated degradation of HiBiT-ERα: not aldosterone was capable of blocking

## CCN(CC)CCCC(C)Nc1ccnc2cc(Cl)ccc12 (centres unmarked) [chloroquine, chloroquine diphosphate]
HiBiT-GPER
  effect on UI-EP001/UI-EP002-mediated degradation of HiBiT-GPER: had no such effect
